Source: US7750003B2, “Compounds-943” (AstraZeneca AB, priority 2006, dated 2010)

biological target: recombinant mTOR (FLAG-tagged, residues 1362-2549) (Homo sapiens, UniProt P42345); test: In vitro mTOR kinase assay (Test (a), AlphaScreen); format: biochemical; settings: ATP 20 μM, read-out: Test (a): IC50 versus mTOR kinase
Experimental: (a) In Vitro mTOR Kinase Assay
Following expression in the mammalian HEK293 cell line, expressed protein was purified using the FLAG epitope tag using standard purification techniques.
Aliquots (2 μl) of each compound dilution were placed into a well of a Greiner 384-well low volume (LV) white polystyrene plate (Greiner Bio-one).
These assay solutions were incubated for 2 hours at room temperature.
The resultant signals arising from laser light excitation at 680 nm were read using a Packard Envision instrument.
The phosphorylated biotinylated peptide that is associated with AlphaScreen Streptavidin donor beads forms a complex with the p70 S6 Kinase (T389) 1A5 Monoclonal Antibody that is associated with Alphascreen Protein A acceptor beads. Upon laser light excitation at 680 nm, the donor bead: acceptor bead complex produces a signal that can be measured. Accordingly, the presence of mTOR kinase activity results in an assay signal. In the presence of an mTOR kinase inhibitor, signal strength is reduced.
mTOR enzyme inhibition for a given test compound was expressed as an IC50 value.

Chain of recombinant mTOR (FLAG-tagged, residues 1362-2549) (P42345 1362-2549): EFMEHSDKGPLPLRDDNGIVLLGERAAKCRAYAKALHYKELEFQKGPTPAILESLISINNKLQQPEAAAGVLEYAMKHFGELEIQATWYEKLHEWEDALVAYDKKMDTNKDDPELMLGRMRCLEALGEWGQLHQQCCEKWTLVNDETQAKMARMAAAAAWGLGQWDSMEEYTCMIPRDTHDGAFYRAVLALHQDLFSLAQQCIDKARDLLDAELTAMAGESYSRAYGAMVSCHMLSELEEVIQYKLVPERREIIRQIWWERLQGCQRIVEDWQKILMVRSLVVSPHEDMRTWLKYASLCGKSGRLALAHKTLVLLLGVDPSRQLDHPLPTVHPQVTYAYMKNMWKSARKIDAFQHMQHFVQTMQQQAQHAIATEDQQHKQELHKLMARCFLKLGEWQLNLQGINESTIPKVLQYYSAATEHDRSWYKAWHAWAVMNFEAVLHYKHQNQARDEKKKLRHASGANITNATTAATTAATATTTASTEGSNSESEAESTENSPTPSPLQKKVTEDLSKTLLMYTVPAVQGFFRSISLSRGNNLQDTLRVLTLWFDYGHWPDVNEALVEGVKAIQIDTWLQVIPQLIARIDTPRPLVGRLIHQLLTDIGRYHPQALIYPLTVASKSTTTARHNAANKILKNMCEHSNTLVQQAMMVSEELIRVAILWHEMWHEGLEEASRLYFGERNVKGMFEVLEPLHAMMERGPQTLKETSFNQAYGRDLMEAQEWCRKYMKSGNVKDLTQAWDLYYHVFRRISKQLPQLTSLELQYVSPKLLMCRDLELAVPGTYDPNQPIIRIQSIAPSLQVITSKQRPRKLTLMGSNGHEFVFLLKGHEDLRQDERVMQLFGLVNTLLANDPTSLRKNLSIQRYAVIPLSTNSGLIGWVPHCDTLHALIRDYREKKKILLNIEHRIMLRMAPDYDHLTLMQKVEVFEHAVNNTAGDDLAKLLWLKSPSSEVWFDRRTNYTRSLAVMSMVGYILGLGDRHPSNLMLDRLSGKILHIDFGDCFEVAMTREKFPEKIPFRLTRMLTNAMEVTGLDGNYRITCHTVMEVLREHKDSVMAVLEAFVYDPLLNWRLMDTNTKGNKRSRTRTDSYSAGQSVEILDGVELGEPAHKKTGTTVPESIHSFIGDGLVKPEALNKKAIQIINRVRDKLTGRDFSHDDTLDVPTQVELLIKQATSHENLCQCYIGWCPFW

IC50 [nM] | SMILES
440 | C[C@H]1COCCN1c1cc(CS(C)(=O)=O)nc(-c2ccc(NC(=O)Nc3ccccc3)c(Cl)c2)n1 [Example 3b, 1-[2-Chloro-4-[4-[(3S)-3-methylmorpholin-4-yl]-6-(methylsulfonylmethyl)pyrimidin-2-yl]phenyl]-3-phenyl-urea]
3300 | C[C@H]1COCCN1c1cc(CS(C)(=O)=O)nc(-c2cccc(NC(=O)Nc3ccccc3)c2)n1 [Example 3c, 1-[3-[4-[(3S)-3-Methylmorpholin-4-yl]-6-(methylsulfonylmethyl)pyrimidin-2-yl]phenyl]-3-phenyl-urea]
2900 | C[C@H]1COCCN1c1cc(CS(C)(=O)=O)nc(-c2ccc(N(C)C(=O)Nc3ccccc3)cc2)n1 [Example 3d, 1-Methyl-1-[4-[4-[(3S)-3-methylmorpholin-4-yl]-6-(methylsulfonylmethyl)pyrimidin-2-yl]phenyl]-3-phenyl-urea]
31 | CCNC(=O)Nc1ccc(-c2nc(CS(C)(=O)=O)cc(N3CCOC[C@@H]3C)n2)cc1F [Example 4, 1-Ethyl-3-[2-fluoro-4-[4-[(3S)-3-methylmorpholin-4-yl]-6-(methylsulfonylmethyl)pyrimidin-2-yl]phenyl]urea]
1000 | C[C@H]1COCCN1c1cc(CS(C)(=O)=O)nc(-c2ccc(NC(=O)N3CCC3)c(F)c2)n1 [Example 4a, N-[2-Fluoro-4-[4-[(3S)-3-methylmorpholin-4-yl]-6-(methylsulfonylmethyl)pyrimidin-2-yl]phenyl]azetidine-1-carboxamide]
140 | CC(C)NC(=O)Nc1ccc(-c2nc(CS(C)(=O)=O)cc(N3CCOC[C@@H]3C)n2)cc1F [Example 4b, 3-[2-fluoro-4-[4-[(3S)-3-methylmorpholin-4-yl]-6-(methylsulfonylmethyl)pyrimidin-2-yl]phenyl]-1-propan-2-yl-urea]
170 | COCCNC(=O)Nc1ccc(-c2nc(CS(C)(=O)=O)cc(N3CCOC[C@@H]3C)n2)cc1 [Example 4d, 1-(2-methoxyethyl)-3-[4-[4-[(3S)-3-methylmorpholin-4-yl]-6-(methylsulfonylmethyl)pyrimidin-2-yl]phenyl]urea]
600 | COCCNC(=O)Nc1ccc(-c2nc(CS(C)(=O)=O)cc(N3CCOC[C@@H]3C)n2)cc1OC [Example 4e, 1-(2-methoxyethyl)-3-[2-methoxy-4-[4-[(3S)-3-methylmorpholin-4-yl]-6-(methylsulfonylmethyl)pyrimidin-2-yl]phenyl]urea]
680 | COCCN(C)C(=O)Nc1ccc(-c2nc(CS(C)(=O)=O)cc(N3CCOC[C@@H]3C)n2)cc1F [Example 4f, 3-[2-Fluoro-4-[4-[(3S)-3-methylmorpholin-4-yl]-6-(methylsulfonylmethyl)pyrimidin-2-yl]phenyl]-1-(2-methoxyethyl)-1-methyl-urea]
830 | COCCNC(=O)Nc1ccc(-c2nc(CS(C)(=O)=O)cc(N3CCOC[C@@H]3C)n2)cc1F [Example 4g, 3-[2-fluoro-4-[4-[(3S)-3-methylmorpholin-4-yl]-6-(methylsulfonylmethyl)pyrimidin-2-yl]phenyl]-1-(2-methoxyethyl)urea]
63 | CCNC(=O)Nc1ccc(-c2nc(CO)cc(N3CCOC[C@@H]3C)n2)cc1 [Example 5, 1-Ethyl-3-[4-[4-(hydroxymethyl)-6-[(3S)-3-methylmorpholin-4-yl]pyrimidin-2-yl]phenyl]urea]
560 | C[C@H]1COCCN1c1cc(CO)nc(-c2ccc(NC(=O)Nc3ccccc3)cc2)n1 [Example 6, 1-[4-[4-(Hydroxymethyl)-6-[(3S)-3-methylmorpholin-4-yl]pyrimidin-2-yl]phenyl]-3-phenyl-urea]
170 | CC(C)NC(=O)Nc1ccc(-c2nc(CS(C)(=O)=O)cc(N3CCOCC3)n2)cc1 [Example 7, 3-[4-[4-(Methylsulfonylmethyl)-6-morpholin-4-yl-pyrimidin-2-yl]phenyl]-1-propan-2-yl-urea]
280 | Cc1ccc(NC(=O)Nc2ccc(-c3nc(CS(C)(=O)=O)cc(N4CCOCC4)n3)cc2)cc1 [Example 7a, 1-(4-methylphenyl)-3-[4-[4-(methylsulfonylmethyl)-6-morpholin-4-yl-pyrimidin-2-yl]phenyl]urea]

More lines, now with the values behind:

SMILES | IC50 [nM]
CCNC(=O)Nc1ccc(-c2nc(CS(C)(=O)=O)cc(N3CCOC[C@@H]3C)n2)cc1 [Example 1, 1-Ethyl-3-[4-[4-[(3S)-3-methylmorpholin-4-yl]-6-(methylsulfonylmethyl)pyrimidin-2-yl]phenyl]urea] | 6.2
COc1ccc(NC(=O)Nc2ccc(-c3nc(CS(C)(=O)=O)cc(N4CCOC[C@@H]4C)n3)cc2)cc1 [Example 1a, 1-(4-methoxyphenyl)-3-[4-[4-[(3S)-3-methylmorpholin-4-yl]-6-(methylsulfonylmethyl)pyrimidin-2-yl]phenyl]urea] | 62
CC(C)NC(=O)Nc1ccc(-c2nc(CS(C)(=O)=O)cc(N3CCOC[C@@H]3C)n2)cc1 [Example 1c, 3-[4-[4-[(3S)-3-methylmorpholin-4-yl]-6-(methylsulfonylmethyl)pyrimidin-2-yl]phenyl]-1-propan-2-yl-urea] | 78
C[C@H]1COCCN1c1cc(CS(C)(=O)=O)nc(-c2ccc(NC(=O)Nc3ccc(F)cc3)cc2)n1 [Example 1e, 3-(4-fluorophenyl)-1-[4-[4-[(3S)-3-methylmorpholin-4-yl]-6-(methylsulfonylmethyl)pyrimidin-2-yl]phenyl]urea] | 320
C[C@H]1COCCN1c1cc(CS(C)(=O)=O)nc(-c2ccc(NC(=O)Nc3ccc(F)cc3)c(F)c2)n1 [Example 1f, 1-[2-fluoro-4-[4-[(3S)-3-methylmorpholin-4-yl]-6-(methylsulfonylmethyl)pyrimidin-2-yl]phenyl]-3-(4-fluorophenyl)urea] | 360
C[C@H]1COCCN1c1cc(CS(C)(=O)=O)nc(-c2ccc(NC(=O)Nc3ccccc3)c(F)c2)n1 [Example 1g, 1-[2-fluoro-4-[4-[(3S)-3-methylmorpholin-4-yl]-6-(methylsulfonylmethyl)pyrimidin-2-yl]phenyl]-3-phenyl-urea] | 960
COc1cc(-c2nc(CS(C)(=O)=O)cc(N3CCOC[C@@H]3C)n2)ccc1NC(=O)Nc1ccc(F)cc1 [Example 1h, 3-(4-fluorophenyl)-1-[2-methoxy-4-[4-[(3S)-3-methylmorpholin-4-yl]-6-(methylsulfonylmethyl)pyrimidin-2-yl]phenyl]urea] | 1200
COc1ccc(NC(=O)Nc2ccc(-c3nc(CS(C)(=O)=O)cc(N4CCOC[C@@H]4C)n3)cc2OC)cc1 [Example 1i, 3-[2-methoxy-4-[4-[(3S)-3-methylmorpholin-4-yl]-6-(methylsulfonylmethyl)pyrimidin-2-yl]phenyl]-1-(4-methoxyphenyl)urea] | 550
C[C@H]1COCCN1c1cc(CS(C)(=O)=O)nc(-c2ccc(NC(=O)Nc3ccc(F)cc3)nc2)n1 [Example 1j, 3-(4-fluorophenyl)-1-[5-[4-[(3S)-3-methylmorpholin-4-yl]-6-(methylsulfonylmethyl)pyrimidin-2-yl]pyridin-2-yl]urea] | 43
C[C@H]1COCCN1c1cc(CS(C)(=O)=O)nc(-c2ccc(NC(=O)N3CCC3)cc2)n1 [Example 2, N-[4-[4-[(3S)-3-methylmorpholin-4-yl]-6-(methylsulfonylmethyl)pyrimidin-2-yl]phenyl]azetidine-1-carboxamide] | 310
COCCN(C)C(=O)Nc1ccc(-c2nc(CS(C)(=O)=O)cc(N3CCOC[C@@H]3C)n2)cc1 [Example 2a, 1-(2-methoxyethyl)-1-methyl-3-[4-[4-[(3S)-3-methylmorpholin-4-yl]-6-(methylsulfonylmethyl)pyrimidin-2-yl]phenyl]urea] | 2300
C[C@H]1COCCN1c1cc(CS(C)(=O)=O)nc(-c2ccc(NC(=O)N(C)C)cc2)n1 [Example 2b, 1,1-dimethyl-3-[4-[4-[(3S)-3-methylmorpholin-4-yl]-6-(methylsulfonylmethyl)pyrimidin-2-yl]phenyl]urea] | 290
COc1cc(-c2nc(CS(C)(=O)=O)cc(N3CCOC[C@@H]3C)n2)ccc1NC(=O)N(C)C [Example 2c, 3-[2-methoxy-4-[4-[(3S)-3-methylmorpholin-4-yl]-6-(methylsulfonylmethyl)pyrimidin-2-yl]phenyl]-1,1-dimethyl-urea] | 1200
CNC(=O)Nc1ccc(-c2nc(CS(C)(=O)=O)cc(N3CCOC[C@@H]3C)n2)cc1 [Example 2d, 1-methyl-3-[4-[4-[(3S)-3-methylmorpholin-4-yl]-6-(methylsulfonylmethyl)pyrimidin-2-yl]phenyl]urea] | 6.8
CNC(=O)Nc1ccc(-c2nc(CS(C)(=O)=O)cc(N3CCOC[C@@H]3C)n2)cc1F [Example 2e, 3-[2-fluoro-4-[4-[(3S)-3-methylmorpholin-4-yl]-6-(methylsulfonylmethyl)pyrimidin-2-yl]phenyl]-1-methyl-urea] | 38
C[C@H]1COCCN1c1cc(CS(C)(=O)=O)nc(-c2ccc(NC(=O)N(C)C)c(F)c2)n1 [Example 2f, 3-[2-fluoro-4-[4-[(3S)-3-methylmorpholin-4-yl]-6-(methylsulfonylmethyl)pyrimidin-2-yl]phenyl]-1,1-dimethyl-urea] | 1700
Cc1cc(-c2nc(CS(C)(=O)=O)cc(N3CCOC[C@@H]3C)n2)ccc1NC(=O)Nc1ccccc1 [Example 3, 1-[2-Methyl-4-[4-[(3S)-3-methylmorpholin-4-yl]-6-(methylsulfonylmethyl)pyrimidin-2-yl]phenyl]-3-phenyl-urea] | 1500
CCNC(=O)Nc1ccc(-c2nc(CS(C)(=O)=O)cc(N3CCOC[C@@H]3C)n2)cc1OC [Example 3a, 1-ethyl-3-[2-methoxy-4-[4-[(3S)-3-methylmorpholin-4-yl]-6-(methylsulfonylmethyl)pyrimidin-2-yl]phenyl]urea] | 100
